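In this assay, cells in 96-well plates receive the compound at five concentrations for 48 hours. Endpoints are linearly interpolated between the surrounding concentrations. GI50 marks 50% less growth.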 Calls of active or inactive are those of the source. Rule as the data show it: active = GI50 up to about 1.1 µM and inactive = higher.
What was measured:
Test in all cases: NCI tumour cell line growth inhibition, 48 h
Malme-3M = system: Malme-3M
SK-MEL-5 = system: SK-MEL-5
SNB-19 = system: SNB-19
SNB-75 = system: SNB-75
IGROV-1 = system: IGROV-1
HCT-15 = system: HCT-15
T47D = system: T47D
HOP-92 = system: HOP-92
SK-MEL-28 = system: SK-MEL-28
K562 = system: K562
SF-268 = system: SF-268
SF-295 = system: SF-295
RXF 393 = system: RXF 393
EKVX = system: EKVX
KM12 = system: KM12
OVCAR-8 = system: OVCAR-8
NCI-H23 = system: NCI-H23
RPMI-8226 = system: RPMI-8226
SW-620 = system: SW-620
SR = system: SR
HL-60 = system: HL-60
MOLT-4 = system: MOLT-4
MDA-N = system: MDA-N
UO-31 = system: UO-31
PC-3 = system: PC-3
OVCAR-5 = system: OVCAR-5
M14 = system: M14
COLO 205 = system: COLO 205
TK-10 = system: TK-10
HCT-116 = system: HCT-116
CAKI-1 = system: CAKI-1
NCI/ADR-RES = system: NCI/ADR-RES
DU-145 = system: DU-145
SK-OV-3 = system: SK-OV-3
U-251 = system: U-251
HT-29 = system: HT-29
SN12C = system: SN12C
MDA-MB-435 = system: MDA-MB-435
NCI-H226 = system: NCI-H226
A498 = system: A498
SF-539 = system: SF-539
OVCAR-3 = system: OVCAR-3
MDA-MB-231 = system: MDA-MB-231
ACHN = system: ACHN
A549 = system: A549
OVCAR-4 = system: OVCAR-4
NCI-H522 = system: NCI-H522
UACC-62 = system: UACC-62
HCC 2998 = system: HCC 2998
Hs-578T = system: Hs-578T
NCI-H460 = system: NCI-H460
CCRF-CEM = system: CCRF-CEM

SMILES | GI50 (SK-MEL-5) | GI50 (SNB-19) | GI50 (SNB-75) | GI50 (IGROV-1) | GI50 (HCT-15) [µM] | GI50 (HOP-92) | GI50 (SK-MEL-28) | GI50 (K562) | GI50 (SF-268) | GI50 (SF-295) | GI50 (RXF 393) | GI50 (EKVX) | GI50 (KM12) | GI50 (OVCAR-8) | GI50 (NCI-H23) | GI50 (SW-620) | GI50 (MOLT-4) | GI50 (MDA-N) | GI50 (UO-31) | GI50 (PC-3) | other results
O=c1c2ccccc2nc2n1CCc1c-2[nH]c2ccccc12 [RUTAECARPINE] | 14.7 µM (inactive) | 15.8 µM (inactive) | 18.9 µM (inactive) | 19.8 µM (inactive) | > 10 | 15.6 µM (inactive) | 25.2 µM (inactive) | 25.2 µM (inactive) | 26.8 µM (inactive) | 14.1 µM (inactive) | 18.8 µM (inactive) | 20.7 µM (inactive) | > 10 µM (inactive) | 26.2 µM (inactive) | 17.8 µM (inactive) | 18.6 µM (inactive) | 19.9 µM (inactive) | 15.2 µM (inactive) | 14.9 µM (inactive) | 22.2 µM (inactive) | GI50 (Malme-3M): 28.8 µM (inactive); GI50 (T47D): 15.7 µM (inactive); GI50 (RPMI-8226): 15 µM (inactive); GI50 (SR): 24.4 µM (inactive); GI50 (HL-60): 24.2 µM (inactive); GI50 (OVCAR-5): 17.4 µM (inactive); GI50 (M14): 17.1 µM (inactive); GI50 (COLO 205): 21.8 µM (inactive); GI50 (TK-10): 29.6 µM (inactive); GI50 (HCT-116): 17.5 µM (inactive); GI50 (CAKI-1): 9.2 µM (inactive); GI50 (NCI/ADR-RES): 19.5 µM (inactive); GI50 (DU-145): 17.4 µM (inactive); GI50 (SK-OV-3): 19.4 µM (inactive); GI50 (U-251): 15.3 µM (inactive)
COc1cc2c(cc1OC)C1C[C@]3(CCN1CC2)C(=O)N(c1ccccc1)C(=O)N3C(C)=O (stereo not given in full) | > 200 µM (inactive) | > 200 µM (inactive) | > 200 µM (inactive) | > 200 µM (inactive) | > 200 | > 200 µM (inactive) | > 200 µM (inactive) | – | > 200 µM (inactive) | > 200 µM (inactive) | > 200 µM (inactive) | > 200 µM (inactive) | > 200 µM (inactive) | > 200 µM (inactive) | > 200 µM (inactive) | > 200 µM (inactive) | – | > 200 µM (inactive) | > 200 µM (inactive) | > 200 µM (inactive) | GI50 (HT-29): > 200 µM (inactive); GI50 (SN12C): > 200 µM (inactive); GI50 (MDA-MB-435): > 200 µM (inactive); GI50 (NCI-H226): > 200 µM (inactive); GI50 (A498): > 200 µM (inactive); GI50 (SF-539): > 200 µM (inactive); GI50 (OVCAR-3): > 200 µM (inactive); GI50 (MDA-MB-231): > 200 µM (inactive); GI50 (OVCAR-5): > 200 µM (inactive); GI50 (M14): > 200 µM (inactive); GI50 (ACHN): > 200 µM (inactive); GI50 (COLO 205): > 200 µM (inactive); GI50 (TK-10): > 200 µM (inactive); GI50 (A549): > 200 µM (inactive); GI50 (HCT-116): > 200 µM (inactive); GI50 (CAKI-1): > 200 µM (inactive); GI50 (NCI/ADR-RES): > 200 µM (inactive); GI50 (DU-145): > 200 µM (inactive); GI50 (OVCAR-4): > 200 µM (inactive); GI50 (U-251): > 200 µM (inactive)
O=C(O)CCCc1ccccc1 [SODIUM PHENYLBUTYRATE] | 162 µM (inactive) | – | – | – | 137 | 80.2 µM (inactive) | – | 102 µM (inactive) | – | – | 193 µM (inactive) | – | 126 µM (inactive) | – | – | – | 117 µM (inactive) | – | 189 µM (inactive) | – | GI50 (NCI-H522): 110 µM (inactive); GI50 (SN12C): 102 µM (inactive); GI50 (UACC-62): 172 µM (inactive); GI50 (HCC 2998): 144 µM (inactive); GI50 (Hs-578T): 182 µM (inactive); GI50 (A498): 144 µM (inactive); GI50 (SF-539): 177 µM (inactive); GI50 (NCI-H460): 118 µM (inactive); GI50 (CCRF-CEM): 63.5 µM (inactive)

Source: ChEMBL document CHEMBL1201862, “PubChem BioAssay data set” (2004)
